For 19 compounds, T/C results are on record in PubChem BioAssay AID330 (DTP/NCI, 2004).

Several values for one entry are separate records, joined by “and”; a condition that tells them apart may be missing. Equal entries are not always repeated. Inconclusive results and toxic doses are left out.

The test system of this test is P388 leukemia ip, CD2F1 mice, survival T/C. Kind of test: NCI In Vivo Anticancer Drug Screen. Data for tumor model P388 Leukemia (intraperitoneal) in CD2F1 (CDF1) mice. Particulars: endpoint: median survival time, higher = longer survival. The method in brief: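 Mice carrying the transplanted tumor received test compound or vehicle. Survival was recorded in each group, and the value is the treated-group measurement divided by that of the vehicle-treated control group.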

The mark [1] stands for this setting: dose: 60.0 mg/kg/injection, schedule: Q01DX005 (ip), vehicle: saline with Tween-80.
The mark [2] stands for this setting: dose: 120.0 mg/kg/injection, schedule: Q01DX005 (ip), vehicle: saline with Tween-80.
The mark [3] stands for this setting: dose: 240.0 mg/kg/injection, schedule: Q01DX005 (ip), vehicle: saline with Tween-80.
Where [4] appears, read: dose: 6.25 mg/kg/injection, schedule: Q01DX009 (ip), vehicle: saline.
The mark [5] stands for this setting: dose: 12.5 mg/kg/injection, schedule: Q01DX009 (ip), vehicle: saline.
[6] abbreviates: dose: 25.0 mg/kg/injection, schedule: Q01DX009 (ip), vehicle: saline.
Where [7] appears, read: dose: 50.0 mg/kg/injection, schedule: Q01DX009 (ip), vehicle: saline.
Where [8] appears, read: dose: 100.0 mg/kg/injection, schedule: Q01DX009 (ip), vehicle: saline.
Setting [9] is: dose: 200.0 mg/kg/injection, schedule: Q01DX009 (ip), vehicle: saline.
Where [10] appears, read: dose: 50.0 mg/kg/injection, schedule: Q01DX009 (ip), vehicle: saline with Tween-80.
The mark [11] stands for this setting: dose: 100.0 mg/kg/injection, schedule: Q01DX009 (ip), vehicle: saline with Tween-80.
Setting [12] is: dose: 200.0 mg/kg/injection, schedule: Q01DX009 (ip), vehicle: saline with Tween-80.

For `CCN(CC)CCN1C(=O)CCC1=O`, the T/C by setting is: (dose: 50.0 mg/kg/injection, schedule: Q01DX005 (ip), vehicle: saline) 100 % of control; (dose: 100.0 mg/kg/injection, schedule: Q01DX005 (ip), vehicle: saline) 109 % of control; (dose: 200.0 mg/kg/injection, schedule: Q01DX005 (ip), vehicle: saline) 104 % of control.
For the compound `CN(C)/C=N\c1ncnc2c1c(C#N)cn2C1OC(CO)C(O)C1O` (stereo not given), the T/C by setting is: (dose: 7.5 mg/kg/injection, schedule: Q01DX005 (ip), vehicle: Klucel (hydroxypropylcellulose) (HPC)) 104 % of control and 112 % of control; (dose: 15.0 mg/kg/injection, schedule: Q01DX005 (ip), vehicle: Klucel (hydroxypropylcellulose) (HPC)) 120 % of control and 121 % of control.
For the compound `O=c1cc(Nc2ccc(Br)cc2)[nH]c(=O)[nH]1`, the T/C reads like this: under setting [1], 94 % of control; under setting [2], 100 % of control; under setting [3], 102 % of control.
On to `CCC1C(=O)CC(C(=O)O)C1C(=O)O` (stereo not given), for which the T/C by setting is: (dose: 30.0 mg/kg/injection, schedule: Q01DX005 (ip), vehicle: saline) 98 % of control; (dose: 60.0 mg/kg/injection, schedule: Q01DX005 (ip), vehicle: saline) 98 % of control and 96 % of control; (dose: 120.0 mg/kg/injection, schedule: Q01DX005 (ip), vehicle: saline) 95 % of control; (dose: 240.0 mg/kg/injection, schedule: Q01DX005 (ip), vehicle: saline) 86 % of control.
`CC1=C2C3OC(=O)C(C)C3CCC2(C)CCC1=O` (stereo not given): the T/C by setting is: (dose: 12.5 mg/kg/injection, schedule: Q04DX002 (ip), vehicle: saline with Tween-80) 107 % of control; (dose: 25.0 mg/kg/injection, schedule: Q04DX002 (ip), vehicle: saline with Tween-80) 91 % of control; (dose: 50.0 mg/kg/injection, schedule: Q04DX002 (ip), vehicle: saline with Tween-80) 91 % of control.
Turning to `Nc1[nH]c(=S)[nH]c(=O)c1N=O`, the T/C by setting is: under setting [4], 100 % of control and 113 % of control; under setting [5], 98 % of control; under setting [6], 100 % of control and 117 % of control.
On to `COC1=C(OC)C(=O)C(CC=C(C)C)=C(C)C1=O`, for which the T/C runs as follows: (dose: 12.5 mg/kg/injection, schedule: Q01DX009 (ip), vehicle: saline + alcohol) 118 % of control; (dose: 25.0 mg/kg/injection, schedule: Q01DX009 (ip), vehicle: saline + alcohol) 104 % of control and 110 % of control; (dose: 50.0 mg/kg/injection, schedule: Q01DX009 (ip), vehicle: saline + alcohol) 103 % of control and 105 % of control; (dose: 100.0 mg/kg/injection, schedule: Q01DX009 (ip), vehicle: saline + alcohol) 151 % of control.
For `Cc1ccc(S(=O)(=O)N(CCCc2c(C)nc(N)[nH]c2=O)Cc2ccc([N+](=O)[O-])cc2)cc1`, the T/C by setting is: (dose: 60.0 mg/kg/injection, schedule: Q01DX005 (ip), vehicle: Klucel (hydroxypropylcellulose) (HPC)) 88 % of control; (dose: 120.0 mg/kg/injection, schedule: Q01DX005 (ip), vehicle: Klucel (hydroxypropylcellulose) (HPC)) 86 % of control; (dose: 240.0 mg/kg/injection, schedule: Q01DX005 (ip), vehicle: Klucel (hydroxypropylcellulose) (HPC)) 87 % of control.
As for `COc1ccc(-c2coc3c4c(ccc3c2=O)OCO4)cc1OC`, the T/C is 94 % of control (dose: 9.75 mg/kg/injection, schedule: Q01DX005 (ip), vehicle: Klucel (hydroxypropylcellulose) (HPC)); 94 % of control (dose: 19.5 mg/kg/injection, schedule: Q01DX005 (ip), vehicle: Klucel (hydroxypropylcellulose) (HPC)); 87 % of control (dose: 39.0 mg/kg/injection, schedule: Q01DX005 (ip), vehicle: Klucel (hydroxypropylcellulose) (HPC)); 86 % of control (dose: 78.0 mg/kg/injection, schedule: Q01DX005 (ip), vehicle: Klucel (hydroxypropylcellulose) (HPC)).
For `N#Cc1ccccc1NC(=O)Nc1ccc(Cc2ccc(NC(=O)Nc3ccccc3C#N)cc2)cc1`, the T/C is 97 % of control under setting [1], 97 % of control under setting [2] and 93 % of control under setting [3].
`OCCN1CCN(CC/C=C2\c3ccccc3Sc3ccc(Cl)cc32)CC1`: the T/C is 102 % of control (dose: 3.13 mg/kg/injection, schedule: Q01DX009 (ip), vehicle: saline); 113 % of control under setting [4]; 109 % of control (dose: 11.0 mg/kg/injection, schedule: Q01DX009 (ip), vehicle: saline with Tween-80); 88 % of control (dose: 50.0 mg/kg/injection, schedule: Q04DX003 (ip), vehicle: saline).
As to `N#CC1C(=O)NC(=S)NC1c1ccc2c(c1)CCC2` (stereo not given), the T/C runs as follows: under setting [7], 100 % of control; under setting [8], 95 % of control; under setting [9], 94 % of control.
For the compound `O=C(N/N=C\c1ccc(Cl)cc1)c1ccccc1`, the T/C is 95 % of control under setting [10], 90 % of control under setting [11] and 104 % of control under setting [12].
As to `ClCc1ccc2ccc3ccc(CCl)nc3c2n1`, the T/C was 103 % of control under setting [1], 100 % of control under setting [2] and 104 % of control under setting [3].
As to `COC1OC2COC(c3ccc(Cl)cc3)OC2C2OC12` (stereo not given), the T/C (dose: 7.5 mg/kg/injection, schedule: Q04DX002 (ip), vehicle: saline with Tween-80) was 102 % of control; the T/C (dose: 15.0 mg/kg/injection, schedule: Q04DX002 (ip), vehicle: saline with Tween-80) was 101 % of control; the T/C (dose: 30.0 mg/kg/injection, schedule: Q04DX002 (ip), vehicle: saline with Tween-80) is 102 % of control.
Regarding `[Cl][Mn][Cl]`, the T/C (dose: 0.25 mg/kg/injection, schedule: Q01DX009 (ip), vehicle: saline) was 99 % of control; the T/C (dose: 0.5 mg/kg/injection, schedule: Q01DX009 (ip), vehicle: saline) is 90 % of control and 97 % of control; the T/C (dose: 1.0 mg/kg/injection, schedule: Q01DX009 (ip), vehicle: saline) was 100 % of control; the T/C (dose: 2.0 mg/kg/injection, schedule: Q01DX009 (ip), vehicle: saline) was 88 % of control and 94 % of control; the T/C (dose: 4.0 mg/kg/injection, schedule: Q01DX009 (ip), vehicle: suspension in saline) was 119 % of control; the T/C (dose: 8.0 mg/kg/injection, schedule: Q01DX009 (ip), vehicle: saline) is 90 % of control. The T/C is, setting by setting: (dose: 8.0 mg/kg/injection, schedule: Q01DX009 (ip), vehicle: suspension in saline) 97 % of control; (dose: 16.0 mg/kg/injection, schedule: Q01DX009 (ip), vehicle: saline) 100 % of control; (dose: 16.0 mg/kg/injection, schedule: Q01DX009 (ip), vehicle: suspension in saline) 116 % of control; (dose: 32.0 mg/kg/injection, schedule: Q01DX009 (ip), vehicle: suspension in saline) 119 % of control; (dose: 64.0 mg/kg/injection, schedule: Q01DX009 (ip), vehicle: saline) 100 % of control and 106 % of control; (dose: 64.0 mg/kg/injection, schedule: Q01DX009 (ip), vehicle: suspension in saline) 97 % of control.
On to `CN=P1(NC)NP(=NC)(NC)NP(=NC)(NC)NP(=NC)(NC)N1.[Cl-].[Cl-].[Cl-].[Cl-].[Pt+2]` (stereo not given), for which the T/C is 102 % of control (dose: 12.5 mg/kg/injection, schedule: Q04DX003 (ip), vehicle: saline with Tween-80); 111 % of control (dose: 25.0 mg/kg/injection, schedule: Q04DX003 (ip), vehicle: saline with Tween-80); 120 % of control (dose: 50.0 mg/kg/injection, schedule: Q04DX003 (ip), vehicle: saline with Tween-80); 109 % of control (dose: 100.0 mg/kg/injection, schedule: Q04DX003 (ip), vehicle: saline with Tween-80).
Take `Nc1cc(Cl)c(Cl)c(Cl)c1N`: the T/C by setting is: under setting [5], 106 % of control; under setting [6], 104 % of control; under setting [10], 105 % of control; under setting [7], 103 % of control; under setting [11], 105 % of control; under setting [8], 105 % of control and 93 % of control. Moreover, the T/C under setting [12] is 102 % of control; the T/C under setting [9] is 123 % of control and 93 % of control and 94 % of control.
With `O=C(Cc1ccccc1)Nc1ncc([N+](=O)[O-])s1`, the T/C (dose: 50.0 mg/kg/injection, schedule: Q01DX009 (ip), vehicle: Klucel (hydroxypropylcellulose) (HPC)) was 116 % of control; the T/C (dose: 100.0 mg/kg/injection, schedule: Q01DX009 (ip), vehicle: Klucel (hydroxypropylcellulose) (HPC)) is 106 % of control; the T/C (dose: 200.0 mg/kg/injection, schedule: Q01DX009 (ip), vehicle: Klucel (hydroxypropylcellulose) (HPC)) is 100 % of control.
